Laboratory results: US11014917B2, “5-fluoro-c-(aryl or heterocyclyl)-glycoside derivatives useful as dual SGLT1 / SGLT2 modulators” (Janssen Pharmaceutica NV, priority 2017, dated 2021)

What was measured:
human SGLT1 = target: T1, human SGLT1 (Homo sapiens, UniProt P13866); test: SGLT1 assay: Na-dependent 14C-AMG uptake in CHO-K1 cells stably expressing human SGLT1; format: cell-based; conditions: for IC50: average if tested more than once; for SGLT1 %-inhibition / inhibition at 0.3 µM: @ 0.3 μM
T1 construct: expressed in transfected cells
T1 sequence (P13866 1-664): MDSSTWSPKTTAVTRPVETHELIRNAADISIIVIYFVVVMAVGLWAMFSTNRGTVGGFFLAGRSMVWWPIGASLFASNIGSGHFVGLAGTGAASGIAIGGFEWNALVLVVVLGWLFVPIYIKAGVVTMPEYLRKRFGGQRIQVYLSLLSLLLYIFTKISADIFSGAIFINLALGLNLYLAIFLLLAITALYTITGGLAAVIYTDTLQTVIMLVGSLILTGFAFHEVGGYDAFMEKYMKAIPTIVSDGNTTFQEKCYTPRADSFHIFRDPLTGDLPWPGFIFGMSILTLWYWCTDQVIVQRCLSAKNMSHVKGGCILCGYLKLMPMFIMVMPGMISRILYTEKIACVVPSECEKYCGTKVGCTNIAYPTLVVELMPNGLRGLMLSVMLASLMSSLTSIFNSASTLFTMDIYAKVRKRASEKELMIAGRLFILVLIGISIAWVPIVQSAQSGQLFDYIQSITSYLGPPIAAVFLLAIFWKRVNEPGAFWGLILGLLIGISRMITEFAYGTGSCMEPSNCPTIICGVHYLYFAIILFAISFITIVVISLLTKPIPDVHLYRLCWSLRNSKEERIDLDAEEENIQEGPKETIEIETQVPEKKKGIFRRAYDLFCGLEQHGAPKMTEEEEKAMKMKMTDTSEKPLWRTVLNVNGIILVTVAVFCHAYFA
Protocol: (§1) The ability of the compounds of formula (I) of the present invention to treat an SGLT-mediated condition was determined using the following procedures:
(§2) SGLT1 and SGLT2 were cloned in form of cDNA from human small intestine (Genbank M24847), and from human kidney (Genbank M95549), respectively. Subsequently, each full cDNA was subcloned into pcDNA with each construct's integrity verified through follow-on sequencing. To generate CHO-K1 cells that stably express human SGLT1 or human SGLT2, CHO-K1 cells were transfected using DMRIE-C reagent (Life Technologies, Gaithersburg, Md.). Transfected cells were then selected in the presence of 500 μg/ml of the Geneticin (G418 Cellgro Catalog No. 30234-Cl)
(§3) Individual clones were then characterized using the following cell-based assay for sodium-dependent glucose transport:
(§4) Inhibition of SGLT1 and SGLT2 activity was assessed in CHO K1 cells stably expressing either human SGLT1 or SGLT2, using the SGLT specific glucose analog methyl-glucopyranoside (Sigma Catalog No. M-9376). Cells were plated (45,000 cells/well) in white wall 96-well plates (COSTAR, Cat #3903) for 24 hours in growth medium, then a final concentration of 10 mM Na-Butyrate (ALDRICH Cat #30341-0) was added. The cells were incubated for 24 hours. On the day of the assay, cells were rinsed and treated with test compounds (at concentrations of 0.001 μM to 10 μM) in assay buffer (50 mM HEPES, 20 mM Tris base, 5 mM KCl, 1 mM MgCl2, 1 mM CaCl2 and 137 mM NaCl, pH 7.4) for 10 minutes. Cells were then incubated with ^14C-a-methyl-d-glucopyranoside (AMG, Amersham Catalog No. CFB 76), using 0.07 μCi per well in 500 μM AMG final concentration. The cells were incubated for 2 hours at 37° C. with 5% CO2 and washed two times with ice-cold Phosphate Buffer Solution (Cellgro Catalog No. 21030-CV). The cells were then solubilized by adding 60 μl of MICROSCINT™20 and the Na-dependent ^14C-AMG uptake was quantified by measuring radioactivity. Plates were counted in a TopCount (Packard, Meriden, Conn.)
(§5) Representative compounds of the present invention were tested according to the procedures as described in Biological Example 1 and 2 above, with results as listed in Table 5, below. Results are reported as the %-inhibition or IC50 value. Variability for the functional assay was typically within 20%.

human SGLT2 = target: T2, human SGLT2 (Homo sapiens, UniProt P31639); test: SGLT2 assay: Na-dependent 14C-AMG uptake in CHO-K1 cells stably expressing human SGLT2; format: cell-based; conditions: for IC50: average if tested more than once; for SGLT2 %-inhibition / inhibition at 0.3 µM: @ 0.3 μM
T2 construct: expressed in transfected cells
T2 sequence (P31639 1-672): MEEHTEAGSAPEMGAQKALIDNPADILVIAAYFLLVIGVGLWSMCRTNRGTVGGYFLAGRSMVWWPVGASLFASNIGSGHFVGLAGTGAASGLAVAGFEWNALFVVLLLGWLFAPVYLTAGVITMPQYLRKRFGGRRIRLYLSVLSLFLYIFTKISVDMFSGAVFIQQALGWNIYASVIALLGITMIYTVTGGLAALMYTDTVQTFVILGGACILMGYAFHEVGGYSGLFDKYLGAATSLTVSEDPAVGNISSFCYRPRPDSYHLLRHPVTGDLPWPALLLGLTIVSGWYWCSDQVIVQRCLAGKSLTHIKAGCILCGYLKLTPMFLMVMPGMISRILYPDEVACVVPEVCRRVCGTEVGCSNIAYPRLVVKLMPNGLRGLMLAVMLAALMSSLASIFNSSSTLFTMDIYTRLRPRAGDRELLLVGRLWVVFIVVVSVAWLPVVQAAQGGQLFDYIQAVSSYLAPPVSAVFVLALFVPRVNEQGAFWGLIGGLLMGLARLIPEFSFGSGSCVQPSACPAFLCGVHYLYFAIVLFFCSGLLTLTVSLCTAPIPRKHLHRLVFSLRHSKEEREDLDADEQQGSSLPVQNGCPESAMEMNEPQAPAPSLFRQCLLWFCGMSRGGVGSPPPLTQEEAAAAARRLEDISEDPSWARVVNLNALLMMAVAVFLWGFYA
Protocol: as §1, §2, §3, §4, §5

Compound | IC50 (human SGLT1) [nM] | IC50 (human SGLT2) [nM] | SGLT1 %-inhibition (human SGLT1) [% @ 0.3 μM] | SGLT2 %-inhibition (human SGLT2) [% @ 0.3 μM] | other results
Cc1cc(O)c([C@@H]2O[C@H](CO)[C@@H](F)[C@H](O)[C@H]2O)cc1Cc1cc2c(s1)CCN(C(=O)c1nccs1)C2 [Compound 84, (2-(5-((2S,3R,4R,5S,6R)-5-fluoro-3,4-dihydroxy-6-(hydroxymethyl)-tetrahydro-2H-pyran-2-yl)-4-hydroxy-2-methylbenzyl)-6,7-dihydrothieno[3,2-c]pyridin-5(4H)-yl)(thiazol-2-yl)methanone] | 101 | 36 |  |  | 
Cc1cc(O)c([C@@H]2O[C@H](CO)[C@@H](F)[C@H](O)[C@H]2O)cc1Cc1cc2c(s1)CCN(C(=O)C1CCCC1)C2 [Compound 86, Cyclopentyl(2-(5-((2S,3R,4R,5S,6R)-5-fluoro-3,4-dihydroxy-6-(hydroxymethyl)-tetrahydro-2H-pyran-2-yl)-4-hydroxy-2-methylbenzyl)-6,7-dihydrothieno[3,2-c]pyridin-5(4H)-yl)methanone] | 290 | 38 |  |  | 
Cc1ccc([C@@H]2O[C@H](CO)[C@@H](F)[C@H](O)[C@H]2O)cc1Cc1cc2c(s1)CCN(C(=O)C1CCCC1)C2 [Compound 87] |  |  | 48.7 | 59.0 | 
OC[C@H]1O[C@@H](c2cc3c(c(Cc4ccc5c(c4)NCCC5)c2)OCC3)[C@H](O)[C@@H](O)[C@@H]1F [Compound 89] | 42 | 100 |  |  | 
COc1cc(C)c(Cc2cc3c(s2)CCN(C(=O)C2CCCC2)C3)cc1[C@@H]1O[C@H](CO)[C@@H](F)[C@H](O)[C@H]1O [Compound 91] |  |  | 31.7 | 65.5 | 
Cc1ccc([C@@H]2O[C@H](CO)[C@@H](F)[C@H](O)[C@H]2O)cc1Cc1cc2c(s1)CCN(C#N)C2 [Compound 92, 2-(5-((2S,3R,4R,5S,6R)-5-fluoro-3,4-dihydroxy-6-(hydroxymethyl)-tetrahydro-2H-pyran-2-yl)-2-methylbenzyl)-6,7-dihydrothieno[3,2-c]pyridine-5(4H)-carbonitrile] |  |  |  |  | inhibition at 0.3 µM (human SGLT1): 29%; inhibition at 0.3 µM (human SGLT2): 76.2%
CN1CCCc2ccc(Cc3cc([C@@H]4O[C@H](CO)[C@@H](F)[C@H](O)[C@H]4O)cc4c3OCC4)cc21 [Compound 94] |  |  | 32.6 | 19.2 | 
COc1cc(Cl)c(Cc2cc3c(s2)CCN(C(=O)N2CCCC2)C3)cc1[C@@H]1O[C@H](CO)[C@@H](F)[C@H](O)[C@H]1O [Compound 96] |  |  | 29.1 | 18.2 | 
O=C1COc2cc(Cc3cc([C@@H]4O[C@H](CO)[C@@H](F)[C@H](O)[C@H]4O)cc4c3OCC4)ccc2N1 [Compound 97] |  |  | 31.2 | 67.9 | 
OC[C@H]1O[C@@H](c2cc(Cc3ccc4c(c3)OCCO4)c(O)c3c2OCC3)[C@H](O)[C@@H](O)[C@@H]1F [Compound 98, (2S,3R,4R,5S,6R)-2-[5-(2,3-dihydro-1,4-benzodioxin-6-ylmethyl)-4-hydroxy-2,3-dihydrobenzofuran-7-yl]-5-fluoro-6-(hydroxymethyl)tetrahydropyran-3,4-diol] |  |  |  |  | inhibition at 0.3 µM (human SGLT1): 30.9%; inhibition at 0.3 µM (human SGLT2): 26%
COc1cc(Cl)c(Cc2cc3c(s2)CCN(C#N)C3)cc1[C@@H]1O[C@H](CO)[C@@H](F)[C@H](O)[C@H]1O [Compound 99] |  |  | 28.9 | 83.5 | 
COc1cc(O)c([C@@H]2O[C@H](CO)[C@@H](F)[C@H](O)[C@H]2O)cc1Cc1cc2c(s1)CCN(C#N)C2 [Compound 100] | 95 | 8 |  |  | 
CCOc1c(Cc2ccc3c(c2)OCCO3)cc([C@@H]2O[C@H](CO)[C@@H](F)[C@H](O)[C@H]2O)c2c1CCO2 [Compound 102, (2S,3R,4R,5S,6R)-2-[5-(2,3-dihydro-1,4-benzodioxin-6-ylmethyl)-4-ethoxy-2,3-dihydrobenzofuran-7-yl]-5-fluoro-6-(hydroxymethyl)tetrahydropyran-3,4-diol] |  |  |  |  | inhibition at 0.3 µM (human SGLT1): 27.6%; inhibition at 0.3 µM (human SGLT2): 40.7%
Cc1cc(O)c([C@@H]2O[C@H](CO)[C@@H](F)[C@H](O)[C@H]2O)cc1Cc1cc2c(s1)CCN(C#N)C2 [Compound 103, 2-(5-((2S,3R,4R,5S,6R)-5-fluoro-3,4-dihydroxy-6-(hydroxymethyl)-tetrahydro-2H-pyran-2-yl)-4-hydroxy-2-methylbenzyl)-6,7-dihydrothieno[3,2-c]pyridine-5(4H)-carbonitrile] | 86 | 3 |  |  | 
COc1cc(OC)c([C@@H]2O[C@H](CO)[C@@H](F)[C@H](O)[C@H]2O)cc1Cc1cc2c(s1)CCN(C#N)C2 [Compound 104] |  |  | 32.5 | 81.2 | 
COc1cc(Cl)c(Cc2cc3c(s2)CCN(C(=O)c2nccs2)C3)cc1[C@@H]1O[C@H](CO)[C@@H](F)[C@H](O)[C@H]1O [Compound 106] |  |  | 29.4 | 82.1 | 

Further lines, with some results ahead:

IC50 (human SGLT1) [nM] | IC50 (human SGLT2) [nM] | SGLT1 %-inhibition (human SGLT1) [% @ 0.3 μM] | SGLT2 %-inhibition (human SGLT2) [% @ 0.3 μM] | Compound | other results
 |  | 37.4 | 10.1 | CC1(C)Oc2c(Cc3ccc4c(c3)OCCO4)cc([C@@H]3O[C@H](CO)[C@@H](F)[C@H](O)[C@H]3O)cc2C1CO (stereo partly drawn) [Compound 85] | 
 |  | 42.5 | 44.8 | CC1(CO)COc2c(Cc3ccc4c(c3)OCCO4)cc([C@@H]3O[C@H](CO)[C@@H](F)[C@H](O)[C@H]3O)cc21 (stereo partly drawn) [Compound 88] | 
 |  | 33.6 | 42.3 | OCCC1COc2c(Cc3ccc4c(c3)OCCO4)cc([C@@H]3O[C@H](CO)[C@@H](F)[C@H](O)[C@H]3O)cc21 (stereo partly drawn) [Compound 93] | 
96 | 7 |  |  | COc1c(Cc2ccc3c(c2)OCCO3)cc([C@@H]2O[C@H](CO)[C@@H](F)[C@H](O)[C@H]2O)c2c1CCO2 [Compound 101, (2S,3R,4R,5S,6R)-2-[5-(2,3-dihydro-1,4-benzodioxin-6-ylmethyl)-4-methoxy-2,3-dihydrobenzofuran-7-yl]-5-fluoro-6-(hydroxymethyl)tetrahydropyran-3,4-diol] | 
128 | 4 |  |  | COc1c([C@@H]2O[C@H](CO)[C@@H](F)[C@H](O)[C@H]2O)cc(Cc2ccc3c(c2)NCCC3)c2c1CCO2 [Compound 105, (2S,3R,4R,5S,6R)-5-fluoro-6-(hydroxymethyl)-2-(4-methoxy-7-((1,2,3,4-tetrahydroquinolin-7-yl)methyl)-2,3-dihydrobenzofuran-5-yl)-tetrahydro-2H-pyran-3,4-diol] | 
